Results: patent US11833160B2, “Ursodeoxycholic acid derivatives as HDAC inhibitors for the treatment of polycystic diseases” (UNIVERSIDAD DEL PAIS VASCO/EUSKAL HERRIKO UNIBERTSITATEA, priority 2017, dated 2023)

Columns and labels:
ASBT = target: T1, ASBT (Homo sapiens, UniProt Q12908); assay: Uptake study, transporter ASBT (data not shown); type: in vitro ADME
T1 construct: expressed in transfected cells
T1 sequence (Q12908 1-348): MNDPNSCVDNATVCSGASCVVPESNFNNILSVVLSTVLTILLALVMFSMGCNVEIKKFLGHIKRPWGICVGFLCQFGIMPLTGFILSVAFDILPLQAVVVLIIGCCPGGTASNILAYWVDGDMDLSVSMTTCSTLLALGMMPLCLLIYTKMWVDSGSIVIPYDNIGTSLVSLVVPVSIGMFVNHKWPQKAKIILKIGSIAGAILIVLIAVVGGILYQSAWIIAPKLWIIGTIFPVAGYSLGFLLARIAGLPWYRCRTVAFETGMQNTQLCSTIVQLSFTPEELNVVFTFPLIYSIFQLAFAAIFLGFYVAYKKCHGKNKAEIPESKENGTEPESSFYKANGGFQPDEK
Source text: The bile acid and organic cation transporters expressed in hepatocytes and cholangiocytes were overexpressed in HepG2 cells (OCT1) and CHO cells (OCT3). The efficacy of the process was confirmed by means of measuring the abundance of mRNA (qPCR), protein (WB), and the correct insertion in the plasma membrane (immunofluorescence). The uptake studies included comparing the uptake efficiency of the compound with respect to dihydroethidium (DHE) in the case of OCT3, and sorafenib in the case of OCT1 (positive controls), as well as the sensitivity of the process to substrate inhibition induced by the joint administration of the compound and quinine. The cell content of all the compounds was determined by means of triple quadrupole HPLC-MS/MS after extraction thereof from the cell system used in each case.

[1] = tested on: polycystic human cholangiocytes; assay: Primary cilium length (cilium staining, confocal microscopy), polycystic cells; type: cell-based; conditions: after treatment
Experimental: (§1) Cilium staining. Cells cultured on cover slips were washed with PBS, fixed with methanol, and blocked for one hour in a blocking buffer at room temperature. The γ-tubulin primary antibodies (1:100; Sigma-Aldrich, St Louis, MO) and acetylated α-tubulin primary antibodies (1:1000; Sigma-Aldrich) or IFT88 primary antibodies (1:100; ProteinTech, Rosemont, IL, USA) were incubated overnight at 4° C. After washing, Alexa Fluor 594 and 488 secondary antibodies were combined with the primary antibodies (Life Technologies, Carlsbad, CA, USA) and incubated for 2 hours at room temperature. The cover slips were placed on slides with Prolong Gold Antifade with Dapi (Invitrogen, Carlsbad, CA, USA). The slides were observed and images were taken using laser scanning confocal microscopy with a 60× objective (NIKON C1si Confocal Spectral Imaging System, NIKON Instruments Co., Melville, NY, USA). The field was magnified 4× to observe individual cilia. The images were opened with EZ-C1 3.90 Freeviewer and a scale bar was added. The images were converted to Tiff files and quantified using ImageJ Software. The scale bar saved in the image was measured and the scale established. Using the freehand tool, the cilia were traced and measurements taken.

[2] = tested on: α-acetylated-tubulin in polycystic human cholangiocytes; assay: Immunoblot of α-acetylated-tubulin; type: cell-based; conditions: different doses
Experimental: The expression of α-acetylated-tubulin (Ac-α-tubulin) and lysine 9-acetylated histone 3 (Ac-H3K9) in polycystic human cholangiocytes in culture was analyzed using Ac-α-tubulin-specific primary antibodies (1:2000, Sigma-Aldrich) and H3K9-specific primary antibodies (1:500, Cell Signaling Technology) and a peroxidase-conjugated secondary antibody (1:5000, Sigma-Aldrich). The expression of each protein was quantified using a chemiluminescence system (Amersham, GE Healthcare). The GAPDH protein was used as loading control.

PCK rats = assay: Chronic treatment of PCK rats (animal model of PLD), liver transaminase ALT; type: in vivo, rat; conditions: 7 mg/kg/day, 2 months
Experimental: PCK rats were chronically treated (2 months) with compound Ia (7 mg/kg/day).

human HDAC5 = target: T2, human HDAC5 (Homo sapiens, UniProt Q9UQL6); assay: HDAC5 enzymatic activity assay (fluorogenic peptide); type: biochemical; conditions: 10-dose, 3-fold serial dilution, triplicate
T2 construct: GST (N); purchased BioMol, Hamburg, Germany; host or cells: baculovirus / Sf9 cells
Experimental: Peptide substrates: all HDAC assays were performed using acetylated peptide substrates labeled with 7-amino-4-methylcoumarin (AMC): • Substrate for isoforms HDAC1, 2, 3, 6, 10, 11, and HeLa nuclear extract assays: acetylated fluorogenic peptide from p53 residues 379-382 (RHKKAc). • Substrate for isoforms HDAC4, 5, 7, 9: fluorogenic Boc-L-Lys (s-trifluoroacetyl)-AMC. • Substrate for HDAC8 assays: acetylated fluorogenic peptide from p53 residues 379-382 (RHKAcKAc).
50 μl of peptide substrate (see “peptide substrates” section above) and an optimal concentration of the corresponding enzyme (see “enzymes” section above) in the assay buffer at a final DMSO concentration of 1% were incubated in the presence of gradient concentrations of inhibitors (10-dose IC50 mode with 3-fold serial dilution) at 30° C. for 2 hours. The reactions were carried out in a 96-well microplate for fluorometry in a 50 μl reaction volume. After the deacetylation reaction, Fluor-de-Lys-Developer (BioMol Cat. #KI-105) was added to each well to digest the deacetylated substrate, thereby producing the fluorescent signal. The reaction was carried out for 45 minutes at 30° C. with 5% CO2; the fluorescent signal was then measured using an excitation wavelength of 360 nm and an emission wavelength of 460 nm in a microplate-reading fluorometer (GeminiXS, Molecular Devices, Sunnyvale, CA). […]

[3] = tested on: normal human cholangiocytes (NHC3); assay: Primary cilium length (cilium staining, confocal microscopy), normal cells; type: cell-based; conditions: after treatment
Experimental: as §1

T2 sequence (Q9UQL6 1-1123 isoform Q9UQL6-3): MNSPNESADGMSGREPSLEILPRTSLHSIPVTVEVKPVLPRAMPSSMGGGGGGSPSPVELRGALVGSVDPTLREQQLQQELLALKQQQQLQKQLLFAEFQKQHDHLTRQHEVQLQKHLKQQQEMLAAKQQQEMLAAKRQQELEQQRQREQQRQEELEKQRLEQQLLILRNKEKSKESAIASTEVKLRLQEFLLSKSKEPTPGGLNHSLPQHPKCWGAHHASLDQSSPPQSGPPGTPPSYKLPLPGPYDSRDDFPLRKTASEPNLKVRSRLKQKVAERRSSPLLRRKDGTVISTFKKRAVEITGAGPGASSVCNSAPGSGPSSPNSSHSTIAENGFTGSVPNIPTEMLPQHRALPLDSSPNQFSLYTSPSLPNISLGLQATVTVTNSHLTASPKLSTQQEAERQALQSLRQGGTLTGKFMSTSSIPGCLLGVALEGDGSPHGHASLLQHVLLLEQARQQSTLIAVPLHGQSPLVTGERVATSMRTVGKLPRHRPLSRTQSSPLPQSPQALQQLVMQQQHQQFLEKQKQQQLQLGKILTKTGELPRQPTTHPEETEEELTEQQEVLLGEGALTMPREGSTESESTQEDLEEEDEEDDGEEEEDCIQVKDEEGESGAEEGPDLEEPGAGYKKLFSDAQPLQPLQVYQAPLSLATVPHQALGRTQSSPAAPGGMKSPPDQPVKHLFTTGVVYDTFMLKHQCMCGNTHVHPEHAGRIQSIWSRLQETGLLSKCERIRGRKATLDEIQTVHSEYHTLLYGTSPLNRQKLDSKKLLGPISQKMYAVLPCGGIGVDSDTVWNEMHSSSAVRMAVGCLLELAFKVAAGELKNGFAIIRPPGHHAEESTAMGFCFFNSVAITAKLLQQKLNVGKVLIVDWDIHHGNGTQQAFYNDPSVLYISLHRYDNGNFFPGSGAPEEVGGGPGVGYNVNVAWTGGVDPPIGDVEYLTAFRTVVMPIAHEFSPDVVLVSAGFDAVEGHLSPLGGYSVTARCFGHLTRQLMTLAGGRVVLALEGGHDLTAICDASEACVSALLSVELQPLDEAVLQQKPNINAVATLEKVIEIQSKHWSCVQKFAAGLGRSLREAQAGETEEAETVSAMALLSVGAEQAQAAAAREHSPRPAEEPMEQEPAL

SMILES	transport through ASBT (ASBT)	length of the cilia, polycystic human cholangiocytes [1]	expression of α-acetylated-tubulin [2]	levels of liver transaminase ALT (PCK rats)	IC50 (human HDAC5) [µM]	length of the cilia, normal human cholangiocytes [3]	melting point [°C]
C[C@H](CCC(=O)NCc1ccc(C(=O)NO)cc1)[C@H]1CC[C@H]2[C@@H]3[C@@H](O)C[C@@H]4C[C@H](O)CC[C@]4(C)[C@H]3CC[C@]12C [Compound Ia]	not through ASBT	significantly increased	increases significantly and in a dose-dependent manner	significantly reduced	14.1	did not lead to any significant variations	–
C[C@H](CCC(=O)NCC(=O)NCc1ccc(C(=O)NO)cc1)[C@H]1CC[C@H]2[C@@H]3[C@@H](O)C[C@@H]4C[C@H](O)CC[C@]4(C)[C@H]3CC[C@]12C [Ib, 4-((2-((R)-4 ((3R,5S,7S,8R,9S,10S,13R,14S,17R)-3,7-dihydroxy-10,13-dimethylhexadecahydro-1H-cyclopenta[a]phenanthren-17-yl)pentanamide)acetamido)methyl)-N-hydroxybenzamide]	–	–	–	–	–	–	153 to 155
